Assay results as given in article PMC8279156, “Design, synthesis, HER2 inhibition and anticancer evaluation of new substituted 1,5-dihydro-4,1-benzoxazepines” (Journal of Enzyme Inhibition and Medicinal Chemistry, 2021).
Where two headings read alike, the source gives them in different places.

Tests used:
isolated HER2 = isolated HER2 (Homo sapiens, UniProt P04626); experiment: HER2 inhibition assay, radiometric protein kinase assay (33PanQinase Activity Assay); format: biochemical; settings: for IC50: isolated HER2, radiometric assay, 10 concentrations in singlicate; for ΔΔG Experiment (3 -> L): binding free energy difference relative to bozepinib (3), extracted from IC50 values
Protocol: The IC50 profile of the target compounds was determined using isolated HER2. IC50 values were measured by testing 10 concentrations (1 × 10 ^−4 M to 3 × 10 ^−9 M) of each compound in singlicate. A radiometric protein kinase assay (33PanQinase® Activity Assay) was used for measuring the kinase activity of HER2. The assay was performed in 96-well FlashPlatesTM from PerkinElmer (Boston, MA) in a 50 µl reaction volume. […] The reaction cocktails were incubated at 30 °C for 60 min. The reaction was halted with 50 µl of 2% (v/v) H3PO4, plates were aspirated and washed two times with 200 µl 0.9% (w/v) NaCl. Incorporation of ^33Pi was determined with a microplate scintillation counter (Microbeta, Wallac, Waltham, MA).
Human epidermal growth factor receptor 2 (HER2) is overexpressed in about 20% of all breast cancers. […] This prompted us to evaluated compounds 7–9 for their in vitro HER2 inhibitory effect. The IC50 profile of the target compounds was determined against isolated HER2 using a radiometric assay (Table 1).

[1] = test system: MCF-7 human breast cancer cell line; experiment: Proliferation assay (sulphorhodamine-B) in MCF-7; format: cell-based; settings: MCF7, 72 h of treatment, mean ± SD
Protocol: (§1) MCF-7, HCT-116, A-375 and SKBR cells were grown at 37 °C in an atmosphere containing 5% CO2, with Dulbecco’s modified Eagle Medium (DMEM) (Gibco, Grand Island, NY) supplemented with 10% heat-inactivated foetal bovine serum (FBS) (Gibco), 2% L-glutamine, 2.7% sodium bicarbonate, 1% Hepes buffer, 40 mg/L gentamicin and 500 mg/L ampicillin.
(§2) Compounds were dissolved in DMSO and stored at −20 °C. For each experiment, the stock solutions were further diluted in medium to obtain the desired concentrations. The final solvent concentration in cell culture was ≤ 0.1% v/v of DMSO, a concentration without any effect on cell replication. Parallel cultures of MCF-7, HCT-116, A375 and SKBR-3 cells in medium with DMSO were used as controls.
(§3) The effect of the compounds on cell viability was assessed using the sulphorhodamine-B colorimetric assay. Cells suspension (1 × 10^3 cells/well) were seeded onto 24-well plates and incubated for 24 h. The cells were then treated with different concentrations of drugs in their respective culture medium and maintained with the treatment for 3 days. Three days later, wells were aspirated and fresh medium and drug were added. Then cell cultures were maintained for 3 additional days. Thereafter, a Titertek Multiscan (Flow, Irvine, CA) at 492 nm was used. The linearity of the SRB assay was evaluated with a cell number for each cell stock before each cell growth experiment. The IC50 values were calculated from semi-logarithmic dose–response curves by linear interpolation. All the experiments were plated in triplicate wells and were carried out twice.
(§4) We then investigated the effects of the target compounds on cell proliferation on the human breast cancer cell lines MCF-7 and SKBR-3, the human colon carcinoma cell line HCT-116 and the human malignant melanoma cell line A-375. The antiproliferative activity of 7–9 was evaluated using sulphorhodamine-B colorimetric assay after 72 h of treatment (Table 3).
(§5) All experiments were conducted in duplicate and gave similar results. The data are mean ± SD of three independent determinations. MCF-7: human breast cancer cell line; SKBR3: human breast cancer cell line; HCT-116: human colon cancer cell line and A-375: human melanoma cancer cell line.

[2] = test system: SKBR3 human breast cancer cell line; experiment: Proliferation assay (sulphorhodamine-B) in SKBR3; format: cell-based; settings: SK-BR-3, 72 h of treatment, mean ± SD
Protocol: as §1, §2, §3, §4, §5

[3] = test system: HCT-116 human colon cancer cell line; experiment: Proliferation assay (sulphorhodamine-B) in HCT-116; format: cell-based; settings: 72 h of treatment, mean ± SD
Protocol: as §1, §2, §3, §4, §5

[4] = test system: A-375 human melanoma cancer cell line; experiment: Proliferation assay (sulphorhodamine-B) in A-375; format: cell-based; settings: 72 h of treatment, mean ± SD, read-out: IC50 A375
Protocol: as §1, §2, §3, §4, §5

[5] = test system: MCF-7 human breast cancer cell line; settings: previously described compounds, cited from earlier work
[6] = test system: MCF-7, SKBR3, HCT-116 and A-375 cell lines; experiment: Proliferation assay (sulphorhodamine-B), all tumour cell lines studied; format: cell-based; settings: Homo sapiens, span over the four cell lines, read-out: IC50 against all the tumour cell lines studied
Protocol: as §1
Compounds were dissolved in DMSO and stored at −20 °C. For each experiment, the stock solutions were further diluted in medium to obtain the desired concentrations. The final solvent concentration in cell culture was ≤ 0.1% v/v of DMSO, a concentration without any effect on cell replication. […]
The effect of the compounds on cell viability was assessed using the sulphorhodamine-B colorimetric assay. […] The linearity of the SRB assay was evaluated with a cell number for each cell stock before each cell growth experiment. The IC50 values were calculated from semi-logarithmic dose–response curves by linear interpolation. […]
as §4, with “3). […]” for “3).”

HER2 = experiment: Western blot, HER2 expression in SKBR cells; format: cell-based, human; settings: 5 µM
Protocol: (§6) We performed a western blot to study differences in protein expression after treatment with 5 µM of 7c.
(§7) SKBR cells seeded on 6-well plates were treated during 4 h and 16, lysed using RIPA Lysis Buffer System (Santa Cruz Biotechnology, Santa Cruz, CA) and quantified by Pierce™ BCA Protein Assay Kit (Thermo Fisher Scientific, Waltham, MA). Western blot was realised using 4× Laemmli sample buffer (Bio-Rad, Hercules, CA) and separated by SDS-polyacrylamide gel electrophoresis (SDS–PAGE) and then, transferred to PVDF membranes. Blocking was realised with milk in PBS 5%.
(§8) The following primary antibodies were used to detect protein expression,: caspase 3: ref-9662S (Cell Signalling, Beverly, MA), caspase 1(14F468): sc-56036 (Santa Cruz Biotechnology, Santa Cruz, CA), cytochrome-c (A-8): sc-13156 (Santa Cruz Biotechnology, Santa Cruz, CA), Bax(B-9): sc-7480 (Santa Cruz Biotechnology, Santa Cruz, CA) and β-actin: sc-47778 (Santa Cruz Biotechnology, Santa Cruz, CA). […] Protein–antibody complexes were made visible using enhanced chemiluminescence (ECL, Bonus, Amersham, Little Chalfont, UK) with the program IMAGE READER LAS-4000 in a LAS-4000 imaging system. Quantity One program were used to analyse the intensity of the signal. […]

Bax = experiment: Western blot, Bax expression in SKBR cells; format: cell-based, human; settings: 5 µM, 4 h and 16 h, control and treated cells
Protocol: as §6, §7, §8

cytochrome c = experiment: Western blot, cytochrome c expression in SKBR cells; format: cell-based, human; settings: 5 µM
Protocol: as §6, §7, §8

pro-caspase 3 = experiment: Western blot, pro-caspase 3 expression in SKBR cells; format: cell-based, human; settings: 5 µM
Protocol: as §6, §7, §8

caspase 1 = experiment: Western blot, caspase 1 expression in SKBR cells; format: cell-based, human; settings: 5 µM, 16 h of exposition
Protocol: as §6, §7, §8

[7] = read-out: in vitro antiproliferative activity against MCF-7

Chain of isolated HER2 (P04626 23-1255): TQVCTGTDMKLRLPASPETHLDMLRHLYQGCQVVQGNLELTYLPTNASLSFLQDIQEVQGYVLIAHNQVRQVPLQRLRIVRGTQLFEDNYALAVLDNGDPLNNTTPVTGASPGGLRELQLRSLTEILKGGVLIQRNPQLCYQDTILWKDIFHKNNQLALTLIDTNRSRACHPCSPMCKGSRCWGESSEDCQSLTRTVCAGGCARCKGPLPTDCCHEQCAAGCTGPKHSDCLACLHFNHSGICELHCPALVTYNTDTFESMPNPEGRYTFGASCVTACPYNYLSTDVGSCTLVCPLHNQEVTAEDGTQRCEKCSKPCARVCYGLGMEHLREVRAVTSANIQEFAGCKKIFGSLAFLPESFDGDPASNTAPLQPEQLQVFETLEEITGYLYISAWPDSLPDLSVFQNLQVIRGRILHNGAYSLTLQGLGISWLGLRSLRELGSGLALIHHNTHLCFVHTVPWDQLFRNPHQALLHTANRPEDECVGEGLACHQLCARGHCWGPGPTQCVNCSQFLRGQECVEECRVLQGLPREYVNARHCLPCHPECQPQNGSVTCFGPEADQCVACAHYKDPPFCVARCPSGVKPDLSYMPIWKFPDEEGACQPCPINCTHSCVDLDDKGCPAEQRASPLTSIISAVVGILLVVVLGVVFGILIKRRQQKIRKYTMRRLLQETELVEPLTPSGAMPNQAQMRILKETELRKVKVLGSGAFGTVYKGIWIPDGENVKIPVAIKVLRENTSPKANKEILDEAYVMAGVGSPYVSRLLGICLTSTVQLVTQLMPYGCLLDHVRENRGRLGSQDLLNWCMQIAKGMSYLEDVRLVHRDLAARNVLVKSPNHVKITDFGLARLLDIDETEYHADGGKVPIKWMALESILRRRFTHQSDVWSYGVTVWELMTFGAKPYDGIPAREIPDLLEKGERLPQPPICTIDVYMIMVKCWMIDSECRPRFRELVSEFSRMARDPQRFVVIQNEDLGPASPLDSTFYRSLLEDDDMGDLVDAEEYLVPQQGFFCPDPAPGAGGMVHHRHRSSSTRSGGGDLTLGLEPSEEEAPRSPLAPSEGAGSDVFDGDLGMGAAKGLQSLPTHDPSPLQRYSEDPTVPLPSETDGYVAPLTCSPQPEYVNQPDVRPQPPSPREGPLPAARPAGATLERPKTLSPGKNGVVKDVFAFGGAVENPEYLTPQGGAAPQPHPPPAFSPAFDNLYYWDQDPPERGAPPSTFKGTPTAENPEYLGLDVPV

SMILES | IC50 (isolated HER2) [µM] | IC50 [1] [µM] | IC50 [2] [µM] | IC50 [3] [µM] | IC50 [4] [µM] | melting point [°C] | ΔΔG Experiment (3 -> L) (isolated HER2) [kcal/mol] | also measured
O=[N+]([O-])c1ccccc1S(=O)(=O)N1CC(n2cnc3ncnc(Sc4ccccc4)c32)OCc2ccccc21 (stereo not shown) [Compound 2] |  |  |  |  |  |  |  | IC50 [5, 7]: 2.59 µM
O=[N+]([O-])c1ccccc1S(=O)(=O)N1CC(n2cnc3c(Cl)nc(Cl)nc32)OCc2ccccc21 (stereo not shown) [Compound 4] |  |  |  |  |  |  |  | IC50 ([5]; introduction, no reference number printed at the values, read-out: IC50 against the MCF-7 cell line): 0.383 µM
O=[N+]([O-])c1ccc(S(=O)(=O)N2CC(n3cnc4c(Nc5ccccc5)nc(Cl)nc43)OCc3ccccc32)cc1 (stereo not shown) [Compound 9d, 2-Chloro-6-anilino-9-[1-(p-nitrobenzenesulfonyl)-1,2,3,5-tetrahydro-4,1-benzoxazepine-3-yl]-9H-purine] | 55.5 | 13.8 ± 0.02 | > 100 | > 100 | > 100 | 182 to 183 | 0.41 | 
Cc1ccc(S(=O)(=O)N2CC(n3cnc4c(Br)ncnc43)OCc3ccccc32)cc1 (stereo not shown) [Compound 7b, 6-Bromo-9-[1-(p-methylbenzenesulfonyl)-1,2,3,5-tetrahydro-4,1-benzoxazepine-3-yl]-9H-purine] | > 100 | 9.57 ± 0.03 | 2.3 ± 0.04 | 3.1 ± 0.01 | 3.08 ± 0.01 | 169 to 171 | >0.76 | IC50 [6]: 2.3 to 9.57 µM
Cc1ccc(S(=O)(=O)N2CC(n3cnc4c(Cl)nc(Cl)nc43)OCc3ccccc32)cc1 (stereo not shown) [Compound 7c, 2,6-Dichloro-9-[1-(p-methylbenzenesulfonyl)-1,2,3,5-tetrahydro-4,1-benzoxazepine-3-yl]-9H-purine] | > 100 | 0.86 ± 0.06 | 0.42 ± 0.01 | 0.86 ± 0.03 | 0.78 ± 0.05 | 193 to 195 | >0.76 | HER2 expression, normalised with β-actin and relative to control (value 1) (HER2; 4 h of treatment): 0.48; HER2 expression, normalised with β-actin and relative to control (value 1) (HER2; 16 h of treatment): 0.07; Bax expression (western blot) (Bax): none expression of Bax; cytochrome c expression, normalised value relative to control (value 1) (cytochrome c; 4 h of treatment): 0.93; cytochrome c expression, normalised value relative to control (value 1) (cytochrome c; 16 h of treatment): 0.70; pro-caspase 3 expression, normalised value relative to control (value 1) (pro-caspase 3; 4 h after treatment): 1.18; pro-caspase 3 expression, normalised value relative to control (value 1) (pro-caspase 3; 16 h after treatment): 0.43; caspase 1 expression, normalised value relative to control (value 1) (caspase 1): 3.1
O=[N+]([O-])c1ccc(S(=O)(=O)N2CC(n3cnc4ncnc(Sc5ccccc5)c43)OCc3ccccc32)cc1 (stereo not shown) [Compound 1] |  |  |  |  |  |  |  | IC50 [5, 7]: 0.86 µM
Cc1ccc(S(=O)(=O)N2CC(n3cnc4c(Cl)ncnc43)OCc3ccccc32)cc1 (stereo not shown) [Compound 7a, 6-Chloro-9-[1-(p-methylbenzenesulfonyl)-1,2,3,5-tetrahydro-4,1-benzoxazepine-3-yl]-9H-purine] | > 100 | 0.12 | 1.08 ± 0.02 | 1.03 ± 0.05 | 0.78 ± 0.03 | 178 to 180 | >0.76 | IC50 [6]: ≤ 1 µM
CN(C)c1nc(Cl)nc2c1ncn2C1CN(S(=O)(=O)c2ccc([N+](=O)[O-])cc2)c2ccccc2CO1 (stereo not shown) [Compound 9c, 2-Chloro-6-dimethylamino-9-[1-(p-nitrobenzenesulfonyl)-1,2,3,5-tetrahydro-4,1-benzoxazepine-3-yl]-9H-purine] | 14.4 | 20.7 ± 0.02 | 41.7 ± 0.79 | 87 ± 0.19 | > 100 | 203 to 205 | -0.44 | 

Further lines, with some results ahead:

IC50 (isolated HER2) [µM] | IC50 [1] [µM] | IC50 [2] [µM] | IC50 [3] [µM] | IC50 [4] [µM] | melting point [°C] | ΔΔG Experiment (3 -> L) (isolated HER2) [kcal/mol] | SMILES | also measured
24.6 | 18 ± 0.02 | > 100 | > 100 | > 100 | 142 to 144 |  | O=[N+]([O-])c1ccccc1S(=O)(=O)N1CC(n2cnc3c(Oc4ccccc4)nc(Cl)nc32)OCc2ccccc21 (stereo not shown) [Compound 9f, 2-Chloro-6-phenoxy-9-[1-(o-nitrobenzenesulfonyl)-1,2,3,5-tetrahydro-4,1-benzoxazepine-3-yl]-9H-purine] | 
7.31 | 26.46 ± 0.03 | 71.69 ± 0.5 | 19.62 ± 0.01 | 13.3 ± 0.07 | 183 to 185 | -0.8 | O=[N+]([O-])c1ccc(S(=O)(=O)N2CC(n3cnc4c(Sc5ccccc5)nc(Cl)nc43)OCc3ccccc32)cc1 (stereo not shown) [Compound 9a, 2-Chloro-6-phenylthio-9-[1-(p-nitrobenzenesulfonyl)-1,2,3,5-tetrahydro-4,1-benzoxazepine-3-yl]-9H-purine] | 
11.5 | 20.5 ± 0.06 | > 100 | > 100 | 92.2 ± 8.9 | 212 to 214 |  | O=[N+]([O-])c1ccccc1S(=O)(=O)N1CC(n2cnc3c(Sc4ccccc4)nc(Cl)nc32)OCc2ccccc21 (stereo not shown) [Compound 9e, 2-Chloro-6-phenylthio-9-[1-(o-nitrobenzenesulfonyl)-1,2,3,5-tetrahydro-4,1-benzoxazepine-3-yl]-9H-purine] | 
13.3 | 22.4 ± 0.03 | > 100 | > 100 | > 100 | 210 to 212 |  | O=[N+]([O-])c1ccc(S(=O)(=O)N2CC(n3cnc4c(Oc5ccccc5)nc(Cl)nc43)OCc3ccccc32)cc1 (stereo not shown) [Compound 9b, 2-Chloro-6-phenoxy-9-[1-(p-nitrobenzenesulfonyl)-1,2,3,5-tetrahydro-4,1-benzoxazepine-3-yl]-9H-purine] | 
> 100 | 22.5 ± 0.02 | > 100 | > 100 | > 100 | 152 to 157 |  | O=[N+]([O-])c1ccccc1S(=O)(=O)N1CC(n2cnc3c(Nc4ccccc4)nc(Cl)nc32)OCc2ccccc21 (stereo not shown) [Compound 9g, 2-Chloro-6-anilino-9-[1-(o-nitrobenzenesulfonyl)-1,2,3,5-tetrahydro-4,1-benzoxazepine-3-yl]-9H-purine] | 
